Measurements from patent US9376499B2, “PAR-1 activation by metalloproteinase-1 (MMP-1)” (Tufts Medical Center, Inc., priority 2009, dated 2016).
Non-standard residues stand in square brackets, D forms with d. Residues, ends and D or L forms follow the SMILES beside them. No end group written: not given here. *: point of attachment. 4Abz = Nc1ccc(C(=O)O)cc1; NHOH = ON*

Tests used:
MAPKAP-K2 = test: Collagen activation of phospho-MAPKAP-K2 in platelets (data not shown); assay type: cell-based, human
platelets [1] = test: Clot retraction assay in human platelet-rich plasma, collagen initiated; assay type: cell-based; settings: 2.5-5 μg/ml collagen (titration 1-20 μg/ml); FN-439 5 μM, RWJ-56110 1 μM, MMP9/13 Inh 10 nM; 90 or 240 min
Procedure: Platelet rich plasma (PRP) was isolated from human whole blood anti-coagulated with 4% sodium citrate. Clot retraction assays were done in 1 ml volumes containing 800 μl PBS and 200 μl PRP plus 10 μl red blood cells to enhance contrast. Samples were pretreated with FN-439 (5 μM), MMP9/13 Inh (10 nM) or RWJ-56110 (1 μM) for 15 min and clot formation was initiated with 1-20 μg/ml type I fibrillar collagen. Samples were incubated at 37° C. for 90 or 240 min and then photographed with a digital camera. Each photograph in FIG. 6I is representative of three independent experiments.

MMP-1 [2] = molecular target: T1, MMP-1 (Cavia porcellus, UniProt H0V812); test: Collagenase activity released from collagen-treated guinea pig platelets; assay type: biochemical; settings: 20 μg/ml collagen; 3 μM FN-439 or 20 μg/ml Ab
T1 construct: endogenous in cells; host or cells: platelets of Hartley guinea pigs
Procedure: (§1) Animal experiments were performed in accordance with the National Institutes of Health guidelines and approved by the Tufts Medical Center Institutional Animal Care and Use Committee. 2-4 week old Hartley guinea pigs (170-260 g) were anesthetized by an i.p. injection of xylazine (10 mg/kg) plus ketamine (50 mg/kg) and then catheterized via the left jugular vein and injected (200 μL) with either vehicle (20% DMSO/80% water), P1pal-7 or FN-439. For determination of collagen-dependent systemic platelet activation, 10 min after administration of inhibitors, 200 μg collagen in 200 μL of PBS was delivered via the jugular vein. Ten min after collagen injection, blood was collected into sodium citrate (1% v/v final) from the contralateral jugular vein and platelet counts were measured with a Hemavet850. The enzymatic activity of active MMP-1 in supernatants and platelet lysates was determined using DQ collagen I as fluorogenic substrate in the presence or absence of 3 μM FN-439, or 20 μg/ml of control IgG or a MMP-1 blocking Ab (preincubated for 2 h at 37° C.), as indicated.
Dashed grey line: secondary antibody alone; Solid lines: FACS profiles of platelets treated with the indicated concentrations of collagen for 15 min at 37° C. and then stained with primary MMP-1 (AB806) plus secondary antibodies.

[3] = Collagen-induced systemic platelet activation (thrombocytopenia) in guinea pigs; assay type: in vivo, guinea pig; settings: i.v. P1pal-7 3 mg/kg or FN-439 10 mg/kg, 10 min before 200 μg collagen
Procedure: as §1
Intravascular platelet activation was then induced by an intravenous injection of collagen into the guinea pigs. Vehicle, P1pal-7 (3 mg/kg) or FN-439 (10 mg/kg) were delivered i.v. to the internal jugular vein of guinea pigs (n=6) and allowed to circulate for 10 min. […]

MMP-1 [4] = molecular target: T1, MMP-1; test: Collagen zymography of arterial clots from FeCl3-injured carotid arteries; assay type: in vivo, guinea pig
Procedure: MMP-1 activity with the dots was determined by collagent zymography (see FIG. 6H). Platelets were isolated from guinea pigs and stimulated with 20 μg/ml collagen for 15 min and platelet supernatants and pellets, or whole resting platelets (control), prepared as described Above. Samples were resolved on a 8% type I collagen/acrylamide zymography gel and collagenase zymogram was developed as described by (Gogly et al., 1998) or immunoblotted with MMP1-Ab, AB806. Arterial dots were also removed from the Fe—Cl irnjured carotid arteries from animals (n=5) treated with FN-439 (FN439 clot) or vehicle (veh dot) as in 6F and 6G and dots were dissolved in lysis buffer and passed 5× through a 21-gauge needle. The lysates were centrifuged and supernatents resolved on the zymography gel. The two lanes on the left side of the western blot have 20 ng of proMMP-1 or 20 ng APMA-activated MMP-1, and the right hand lane in the zymogram has 0.5 μg of APMA-activated human MMP-1.

MMP-3 = MMP-3 (Homo sapiens, UniProt P08254); settings: cited from earlier work
MMP-9 = MMP-9 (Homo sapiens, UniProt P14780); settings: cited from earlier work
platelets [5] = test: Collagen-dependent aggregation of gel-filtered human platelets (light transmittance); assay type: cell-based; settings: 5 μg/ml collagen; 1,10-PA 100 μM, MMP-200 200 nM, FN-439 3 μM, RWJ-56110 1 μM, PAR1 Ab 75 μg/ml, pepducins 3 μM, PPACK 200 μM, hirudin 1 U/ml
Procedure: Platelet pellets and their supernatants were prepared as follows. […] following established informed consent procedures. […] Alternatively, whole blood was obtained from Hartley Sprague guinea pigs (drawn from the vena cava) into 3% citrate plus 10 U/ml heparin. Washed platelets from the guinea pigs were prepared in PIPES buffer. Platelet aggregation was measured with a Chronolog 560VS/490-2D aggregometer using modified PIPES buffer as a blank. Samples were incubated for 5 min in the presence of inhibitors and 1.8 mM CaCl2 prior to addition of agonist. All reactions were in final volumes of 250 μl at 37° C. while stirring at 900 rpm.
The effect of pharmacologic blockage of metalloproteases or PAR1 on collagen-dependent platelet aggregation was then tested (see FIG. 5). Gel-filtered platelets from healthy individuals (supplemented with 0.3 mg/ml fibrinogen) were challenged with 5 μg/ml collagen in the presence or absence (0.2% DMSO vehicle) of the indicated inhibitors and allowed to stir at 900 rpm in an aggregometer cuvette (250 μL) at 37° C.
In FIG. 5A, platelet aggregation was monitored by light transmittance.

PAR1 = test: P1pal-7 ammonium acetate salt: IC50 and PAR1 specificity (test not described); settings: ammonium acetate salt of P1pal-7 in 100% water

T1 sequence (H0V812 1-472): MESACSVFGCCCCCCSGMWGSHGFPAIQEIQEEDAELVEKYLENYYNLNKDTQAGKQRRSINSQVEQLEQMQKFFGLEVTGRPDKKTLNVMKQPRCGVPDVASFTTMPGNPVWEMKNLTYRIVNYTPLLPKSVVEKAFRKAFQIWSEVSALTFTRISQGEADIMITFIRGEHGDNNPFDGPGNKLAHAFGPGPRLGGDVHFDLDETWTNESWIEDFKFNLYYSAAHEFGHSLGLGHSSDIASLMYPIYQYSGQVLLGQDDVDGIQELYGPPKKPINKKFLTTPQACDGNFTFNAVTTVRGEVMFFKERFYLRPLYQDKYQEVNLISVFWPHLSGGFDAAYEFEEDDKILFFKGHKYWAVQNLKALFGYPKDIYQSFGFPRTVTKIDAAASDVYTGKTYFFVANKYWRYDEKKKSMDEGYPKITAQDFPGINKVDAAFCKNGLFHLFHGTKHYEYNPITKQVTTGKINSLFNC
MMP-9, sequence (P14780 94-707, species assumed): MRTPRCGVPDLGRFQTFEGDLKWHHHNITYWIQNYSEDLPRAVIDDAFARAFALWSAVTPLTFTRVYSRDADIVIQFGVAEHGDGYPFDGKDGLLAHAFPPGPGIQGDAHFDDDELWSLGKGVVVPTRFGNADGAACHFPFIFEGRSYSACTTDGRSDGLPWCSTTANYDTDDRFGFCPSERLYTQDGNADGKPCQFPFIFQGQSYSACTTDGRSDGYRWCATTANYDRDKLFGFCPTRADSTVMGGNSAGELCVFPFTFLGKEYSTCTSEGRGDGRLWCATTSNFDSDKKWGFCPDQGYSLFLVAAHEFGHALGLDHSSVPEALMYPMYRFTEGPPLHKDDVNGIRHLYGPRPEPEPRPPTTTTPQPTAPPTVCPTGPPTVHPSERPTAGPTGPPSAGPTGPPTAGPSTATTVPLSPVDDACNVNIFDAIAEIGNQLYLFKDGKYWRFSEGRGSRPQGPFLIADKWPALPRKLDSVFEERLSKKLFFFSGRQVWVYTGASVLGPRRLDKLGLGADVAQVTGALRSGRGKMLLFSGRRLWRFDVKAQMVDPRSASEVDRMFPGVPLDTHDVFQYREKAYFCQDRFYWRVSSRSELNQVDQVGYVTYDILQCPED
MMP-3, sequence (P08254 100-477, species assumed): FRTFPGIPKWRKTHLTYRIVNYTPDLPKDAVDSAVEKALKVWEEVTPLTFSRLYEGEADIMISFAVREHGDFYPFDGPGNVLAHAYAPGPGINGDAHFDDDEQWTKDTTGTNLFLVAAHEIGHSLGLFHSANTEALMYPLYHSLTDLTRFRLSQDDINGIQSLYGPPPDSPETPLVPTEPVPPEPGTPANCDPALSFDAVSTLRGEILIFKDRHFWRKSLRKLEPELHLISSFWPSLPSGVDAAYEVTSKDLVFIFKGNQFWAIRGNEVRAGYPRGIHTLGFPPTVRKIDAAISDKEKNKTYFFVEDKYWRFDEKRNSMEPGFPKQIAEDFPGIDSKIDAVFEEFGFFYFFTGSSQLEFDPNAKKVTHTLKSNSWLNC

Compound | block of collagen-activation of phospho-MAPKAP-K2 (MAPKAP-K2) | inhibition of clot formation and retraction (platelets [1]) | block of collagenase activity released by collagen from guinea pig platelets (MMP-1 [2]) | protection against collagen-induced thrombocytopenia / intravascular platelet activation [3] | active MMP-1 in arterial thrombi of treated animals (MMP-1 [4]) | IC50 (MMP-3) [µM] | IC50 (MMP-9) [µM] | inhibition (loss) of collagen-induced platelet aggregation (platelets [5]) | specificity for PAR1 (PAR1)
CC(C)C[C@@H](NC(=O)[C@@H]1CCCN1C(=O)CNC(=O)c1ccc(N)cc1)C(=O)N[C@H](C)C(=O)NO [FN-439] (H-[4Abz]GP[dL][dA]-{NHOH}) | blocked | completely inhibited | completely blocked | significant protection | did not contain active MMP-1 | 150 | 30 | – | –
P1pal-7: PAR1 i3 loop pepducin lipopeptide, KKSRALF (SEQ ID NO. 2), palmitate (also: palmitate, site not given here) | blocked | – | – | almost completely protected | – | – | – | identical levels of inhibition as blocking MMP-1 | retains specificity for PAR1
